Test results taken from patent publication EP4768499A1, “MACROCYCLIC PEPTIDE COMPOUND HAVING CELL MEMBRANE PERMEABILITY AND METABOLIC STABILITY, AND LIBRARY CONTAINING SAME” (Chugai Seiyaku Kabushiki Kaisha, priority 2023, dated 2025).
Starred links: 1 amine or outer side, 2 acyl side, 3 side chain; linkers in the order of their positions; H or OH if unused. Positions of bridges follow the written chain, without caps; N, C: chain ends. Non-standard residues stand in square brackets, D forms with d. Residues, ends and D or L forms follow the SMILES beside them. *: point of attachment. NMeF = CN[C@@H](Cc1ccccc1)C(=O)O; NMeGABA = CN(CCCC(=O)[*:2])[*:1]; NMeI = CC[C@H](C)[C@H](NC)C(=O)O; hPhe = N[C@@H](CCc1ccccc1)C(=O)O; NMeβAla = CN(CCC(=O)[*:2])[*:1]; NMeD = CN[C@@H](CC(=O)O)C(=O)O; NMeL = CN[C@@H](CC(C)C)C(=O)O; NMeV = CN[C@H](C(=O)O)C(C)C; d(β3hA) = C[C@@H](N)CC(=O)O; NMeA = CN[C@@H](C)C(=O)O; Piperidide = C1CCN(*)CC1; dNMeA = CN[C@H](C)C(=O)O; Abu = CC[C@H](N)C(=O)O; Sar = CNCC(=O)O; tBu = CC(C)(C)*

Assays:
[1] = Metabolic stability test: liver microsomal stability assay; assay type: in vitro ADME, mouse; settings: mouse liver microsomes 0.5 mg protein/mL, compound 1 µM; for microsomal CLint at 1 µM: male, pH 7.4, presence of NADPH, read-out: Mouse Hepatic Microsome CLh,int NADPH(+); for Mouse Hepatic Microsome CLh,int NADPH(-): absence of NADPH
Experimental: Under the presence and absence of NADPH, a microsome solution prepared to a concentration of 0.5 mg protein/mL using 100 mM phosphate buffer (pH 7.4) with mouse liver microsomes (male, Corning Incorporated, USA) and the compound at a concentration of 1 µM were subjected to a metabolic reaction for 22 minutes, 44 minutes, or 66 minutes. Protein removal processing was performed over time using acetonitrile, and the remaining amount of unchanged compound was analyzed using LCMS to calculate the intrinsic hepatic clearance (CLh, int) (Table 6).

[2] = test system: Caco-2 cells; test: Membrane permeability test using Caco-2 cells with preincubation; assay type: in vitro ADME; settings: preincubation 20 to 24 hours; for Caco2 Papp (10^-6 cm/sec): Caco-2 cells, apical FaSSIF/HBSS 1% DMSO pH 6.0, basal HBSS 4% BSA pH 7.4, basal sample at 180 minutes; for Caco2 Papp: Apical FaSSIF/HBSS pH 6.0, Basal HBSS 4% BSA pH 7.4, 180 minutes
Experimental: (§1) The permeability coefficient (Caco-2 Papp (cm/sec)) is calculated using a numerical expression 1. [Expression 1] Papp = (1)/(C1 (0) × S) × (dQ)/(dt) [formula] dQ/dt represents the permeation rate of drug (the amount of drug appearing on the Basal side per unit time), S represents the total surface area of cells, and C1(0) represents the concentration of drug added on the Apical side.
(§2) Using a mixed medium of FaSSIF containing 1% DMSO and DMEM as the apical medium, and DMEM as the basal medium, Caco-2 cells and peptide compounds are preincubated for 20 to 24 hours under conditions of 5% CO2, 37°C, and 80 rpm. Afterward, the culture medium on the Apical side and the Basal side are aspirated and washed, the peptide compound was added to a FaSSIF/HBSS buffer solution containing 1% DMSO (1% DMSO) (pH 6.0) at the Apical side, a HBSS buffer solution containing 4% BSA (pH 7.4) was added to the Basal side, and measurement of membrane permeability is started. Each well is shaken under 5% CO2 at 37°C and 80 rpm, and at 180 minutes after the start of shaking, a sample on the Basal side is collected. The amount of peptide compounds in the sample was measured using LCMS, and the membrane permeability coefficient was calculated from the permeation amount (Table 7). When calculating the membrane permeability coefficient (Papp) from the permeation amount, the following expression can be used. Papp = (dQ)/(dt) × (1)/(C1 (0) × S) [formula]
(§3) dQ/dt represents the permeation rate of drug (the amount of drug appearing on the Basal side per unit time), C1(0) represents the concentration of drug added on the Apical side, and S represents the total surface area of cells.

[3] = as above; assay type: in vitro ADME; settings: Caco-2; preincubation 20 to 24 hours; Apical FaSSIF/HBSS pH 6.0, Basal HBSS 4% BSA pH 7.4; 180 minutes; read-out: Caco2 Papp
Experimental: as §1, §2, §3

Compound	microsomal CLint at 1 µM [1]	Mouse Hepatic Microsome CLh,int NADPH(-) [1]	Caco2 Papp (10^-6 cm/sec) [2]	Papp A→B [3]	Caco2 Papp [2]
CC[C@H](C)[C@@H]1NC(=O)[C@H](CC(C)C)N(C)C(=O)[C@H](C)N(C)C(=O)[C@H](C)N(C)C(=O)C[C@@H](C)NC(=O)[C@H](CC(C)C)NC(=O)[C@H](CC(C)C)N(C)C(=O)CN(C)C(=O)[C@H]([C@@H](C)O)NC(=O)[C@H]([C@@H](C)CC)N(C)C(=O)[C@H](CC(C)C)N(C)C(=O)[C@H](C(C)C)NC(=O)[C@H](Cc2ccccc2)N(C)C1=O [pd134] (cyclo(I[NMeF]V[NMeL][NMeI]T[Sar][NMeL]L[d(β3hA)][NMeA][NMeA][NMeL]))	38.5 µL/min/mg	11.4 µL/min/mg Protein	0.75 10^-6 cm/sec	0.75 ×10⁻⁶ cm/s	–
CC[C@H](C)[C@@H]1NC(=O)[C@H](CC(C)C)N(C)C(=O)[C@H](CC(C)C)NC(=O)[C@H](C)N(C)C(=O)C[C@@H](C(=O)N2CCCCC2)NC(=O)[C@H](CC(C)C)NC(=O)[C@@H]2CCCN2C(=O)[C@H](CC(C)C)N(C)C(=O)[C@H]([C@@H](C)O)NC(=O)[C@H]([C@@H](C)CC)N(C)C(=O)[C@H](Cc2ccccc2)N(C)C(=O)[C@H](C)NC(=O)[C@H](Cc2ccccc2)N(C)C(=O)[C@H](CC(C)C)NC1=O [pd027] ([NMeA]L[NMeL]IL[NMeF]A[NMeF][NMeI]T[NMeL]PLD-Piperidide; lactam N-14)	42.4 µL/min/mg	31.1 µL/min/mg Protein	0.02 10^-6 cm/sec	0.02 ×10⁻⁶ cm/s	–
CC[C@H](C)[C@@H]1NC(=O)CN(C)C(=O)C[C@@H](C(=O)N2CCCCC2)N(C)C(=O)[C@H](C(C)C)NC(=O)[C@H](Cc2ccccc2)N(C)C(=O)[C@H](CC(C)C)N(C)C(=O)[C@H]([C@@H](C)O)NC(=O)[C@H](CC(C)C)N(C)C(=O)[C@H](CC(C)C)NC(=O)[C@H](C(C)C)N(C)C(=O)[C@H](C)N(C)C(=O)[C@H](CC(C)C)N(C)C(=O)[C@H](CCc2ccccc2)NC(=O)[C@H](CC(C)C)N(C)C1=O [pd092] ([Sar]I[NMeL][hPhe][NMeL][NMeA][NMeV]L[NMeL]T[NMeL][NMeF]V[NMeD]-Piperidide; lactam N-14)	22 µL/min/mg	26.3 µL/min/mg Protein	0.09 10^-6 cm/sec	0.09 ×10⁻⁶ cm/s	–
CC[C@@H]1NC(=O)[C@H](CC(C)C)N(C)C(=O)[C@H](CC(C)C)NC(=O)[C@H](C)N(C)C(=O)C[C@@H](C(=O)N2CCCCC2)N(C)C(=O)[C@H](C)N(C)C(=O)[C@H](CC(C)C)NC(=O)[C@H](CC(C)C)N(C)C(=O)CNC(=O)[C@H]([C@@H](C)CC)N(C)C(=O)[C@H](Cc2ccccc2)N(C)C(=O)[C@H](C)NC(=O)[C@H]([C@@H](C)CC)NC(=O)[C@H](Cc2ccccc2)N(C)C1=O [pd075] ([NMeA]L[NMeL][Abu][NMeF]IA[NMeF][NMeI]G[NMeL]L[NMeA][NMeD]-Piperidide; lactam N-14)	35.6 µL/min/mg	42.8 µL/min/mg Protein	0.17 10^-6 cm/sec	0.17 ×10⁻⁶ cm/s	–
CC[C@@H]1NC(=O)[C@H](Cc2ccccc2)N(C)C(=O)[C@H](COC(C)(C)C)NC(=O)[C@H](CC(C)C)N(C)C(=O)[C@H](C)N(C)C(=O)[C@@H]2CCCN2C(=O)[C@H]([C@@H](C)O)NC(=O)[C@H](CC(C)C)N(C)C(=O)[C@H]([C@@H](C)CC)NC(=O)[C@H](Cc2ccccc2)N(C)C(=O)[C@H](C(C)C)NC(=O)[C@@H](C)N(C)C(=O)C[C@@H](C)NC(=O)[C@H](C(C)C)N(C)C1=O [pd012] (cyclo([Abu][NMeV][d(β3hA)][dNMeA]V[NMeF]I[NMeL]TP[NMeA][NMeL]S(tBu)[NMeF]))	41.3 µL/min/mg	20.1 µL/min/mg Protein	4.30 10^-6 cm/sec	4.3 ×10⁻⁶ cm/s	–
CC[C@@H]1NC(=O)[C@H](CC(C)C)N(C)C(=O)[C@H](C)NC(=O)CN(C)C(=O)[C@H](CC(C)C)N(C)C(=O)CCN(C)C(=O)[C@H](Cc2ccccc2)N(C)C(=O)[C@H]([C@@H](C)CC)NC(=O)[C@H]([C@@H](C)CC)N(C)C(=O)[C@@H](C)NC(=O)C[C@@H](C(=O)N2CCCCC2)N(C)C(=O)[C@H](Cc2ccccc2)N(C)C(=O)[C@H](C(C)C)NC(=O)[C@H](C)N(C)C1=O [pd076] ([dA][NMeI]I[NMeF][NMeβAla][NMeL][Sar]A[NMeL][Abu][NMeA]V[NMeF][NMeD]-Piperidide; lactam N-14)	10.9 µL/min/mg	18.2 µL/min/mg Protein	<0.10 10^-6 cm/sec	–	<0.10 10^-6 cm/sec
CC[C@H](C)[C@@H]1NC(=O)[C@H]([C@@H](C)CC)N(C)C(=O)[C@@H](C)NC(=O)C[C@@H](C(=O)N2CCCCC2)N(C)C(=O)[C@H](C(C)C)NC(=O)[C@H](Cc2ccccc2)N(C)C(=O)[C@H](C(C)C)NC(=O)[C@H](CC(C)C)N(C)C(=O)[C@H](C)NC(=O)CN(C)C(=O)[C@H](CC(C)C)N(C)C(=O)[C@H](C(C)C)NC(=O)[C@H](C)N(C)C(=O)[C@H](Cc2ccccc2)N(C)C1=O [pd074] ([dA][NMeI]I[NMeF][NMeA]V[NMeL][Sar]A[NMeL]V[NMeF]V[NMeD]-Piperidide; lactam N-14)	26.9 µL/min/mg	26.9 µL/min/mg Protein	0.22 10^-6 cm/sec	–	0.22 10^-6 cm/sec
CC[C@@H]1NC(=O)CCN(C)C(=O)C[C@@H](C)NC(=O)[C@H](CC(C)C)N(C)C(=O)[C@H]([C@@H](C)O)NC(=O)[C@H](C)N(C)C(=O)[C@H]([C@@H](C)CC)NC(=O)[C@H](CCc2ccccc2)NC(=O)[C@H](CC(C)C)N(C)C(=O)[C@H](C)N(C)C(=O)[C@H](Cc2ccccc2)N(C)C(=O)[C@@H]2CCCN2C(=O)[C@H]([C@@H](C)CC)NC(=O)[C@H](CC(C)C)N(C)C1=O [pd051] (cyclo([Abu][NMeL]IP[NMeF][NMeA][NMeL][hPhe]I[NMeA]T[NMeL][d(β3hA)][NMeβAla]))	24.6 µL/min/mg	28.8 µL/min/mg Protein	0.21 10^-6 cm/sec	–	0.21 10^-6 cm/sec
CC[C@@H]1NC(=O)[C@H](CC(C)C)N(C)C(=O)[C@H](COC(C)(C)C)NC(=O)[C@H](Cc2ccccc2)N(C)C(=O)[C@H](CC)NC(=O)[C@H](Cc2ccccc2)N(C)C(=O)[C@H](C)N(C)C(=O)[C@H](CC(C)C)N(C)C(=O)[C@H](CC(C)C)NC(=O)CCCN(C)C(=O)C[C@@H](C(=O)N2CCCCC2)NC(=O)[C@H](CC(C)C)N(C)C(=O)[C@H](C(C)C)NC(=O)[C@H](C)N(C)C1=O [pd016] ([NMeGABA]L[NMeL][NMeA][NMeF][Abu][NMeF]S(tBu)[NMeL][Abu][NMeA]V[NMeL]D-Piperidide; lactam N-14)	49.9 µL/min/mg	32.9 µL/min/mg Protein	0.47 10^-6 cm/sec	–	0.47 10^-6 cm/sec
CC[C@H](C)[C@H]1C(=O)N[C@@H](CC(C)C)C(=O)N(C)[C@@H](CC(C)C)C(=O)N(C)[C@@H](C(C)C)C(=O)N(C)[C@@H](C)C(=O)N[C@@H]([C@@H](C)O)C(=O)N(C)[C@@H](CC(C)C)C(=O)N[C@H](C)CC(=O)N(C)CCC(=O)N[C@@H](CCc2ccccc2)C(=O)N(C)[C@@H](CC(C)C)C(=O)N2CCC[C@H]2C(=O)N(C)[C@@H](Cc2ccccc2)C(=O)N(C)[C@@H](C)C(=O)N1C [pd060] (cyclo(L[NMeL][NMeV][NMeA]T[NMeL][d(β3hA)][NMeβAla][hPhe][NMeL]P[NMeF][NMeA][NMeI]))	32.4 µL/min/mg	38.6 µL/min/mg Protein	0.63 10^-6 cm/sec	–	0.63 10^-6 cm/sec
CC[C@@H]1NC(=O)[C@H]([C@@H](C)CC)NC(=O)[C@H](Cc2ccccc2)N(C)C(=O)[C@H](CC(C)C)N(C)C(=O)[C@H](CC(C)C)NC(=O)CCN(C)C(=O)C[C@@H](C(=O)N2CCCCC2)NC(=O)[C@H](C(C)C)NC(=O)[C@H](CC(C)C)N(C)C(=O)[C@H](C)N(C)C(=O)[C@H](C(C)C)NC(=O)[C@H](CC(C)C)N(C)C(=O)[C@H](COC(C)(C)C)NC(=O)[C@H](Cc2ccccc2)N(C)C1=O [pd015] ([NMeβAla]L[NMeL][NMeF]I[Abu][NMeF]S(tBu)[NMeL]V[NMeA][NMeL]VD-Piperidide; lactam N-14)	32.5 µL/min/mg	26.2 µL/min/mg Protein	0.04 10^-6 cm/sec	–	0.04 10^-6 cm/sec
